# In paper PMC11602115 (Journal of Medicinal Chemistry, 2017):
# Like-named read-outs stand apart in the source and are kept apart here.
# Key:
# human DP1 receptor = biological target: T1, human DP1 receptor (Homo sapiens, UniProt Q13258); assay: HTRF cAMP assay, recombinant human DP1 receptor in CHO-K1 cells; type: cell-based; conditions: for Emax: CHO-K1, intrinsic activity relative to 1 μM PGD2, read-out: hDP1 % IA; for EC50: HTRF (cAMP) human DP1 receptor assay, mean of at least three determinations, read-out: EC50 hDP1
# T1 construct: expressed in transfected cells
# T1 sequence (Q13258 1-359): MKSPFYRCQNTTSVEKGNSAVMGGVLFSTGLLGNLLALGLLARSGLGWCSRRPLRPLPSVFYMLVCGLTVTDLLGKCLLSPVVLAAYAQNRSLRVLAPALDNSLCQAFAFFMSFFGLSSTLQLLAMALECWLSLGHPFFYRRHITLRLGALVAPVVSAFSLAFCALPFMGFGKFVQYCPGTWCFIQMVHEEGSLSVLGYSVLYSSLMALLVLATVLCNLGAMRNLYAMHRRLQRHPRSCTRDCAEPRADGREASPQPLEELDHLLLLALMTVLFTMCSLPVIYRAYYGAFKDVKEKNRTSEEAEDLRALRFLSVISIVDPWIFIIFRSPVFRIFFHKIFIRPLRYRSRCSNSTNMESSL
# Description: (§1) The new compounds were tested for functional agonist activity in a standard (Cisbio) cAMP assay using recombinant IP or DP1 receptors stably expressed in CHO-K1 cells. Clonal cell lines were derived following standard protocols, but receptor expression levels were kept to a minimum to preclude receptor reserve effects.
# (§2) For development of cAMP accumulation assays, recombinant IP or DP1 receptors were stably expressed in CHO-K1 cells and clonal cell lines derived following standard protocols. Receptor expression levels were minimized to preclude receptor reserve effects. HTRF cAMP assays were performed according to the manufacturer’s instructions (Cisbio, cAMP Dynamic 2 assay kit; no. 62AM4PEJ). IP receptor-expressing cells were harvested, resuspended in assay buffer (PBS containing 1 mM IBMX and 0.2% BSA) at a density of 200 000 cells per mL, and dispensed into 384-well assay plates (PerkinElmer Proxiplate no. 6008280) at 5 μL per well. Test compounds were solubilized and serially diluted in DMSO using 5-fold dilutions to generate a 10-point dose–response curve with a top concentration of 10 μM. The samples were then further diluted in PBS to achieve a 2× stock. Diluted compounds were then transferred to a triplicate set of assay plates (5 μL per well). After a 1 h incubation at room temperature, 5 μL of cAMP-D2 reagent diluted in lysis buffer was added to each well followed by 5 μL of cryptate reagent. Plates were then incubated at room temperature for 1 h prior to reading. Time-resolved fluorescence measurements were collected on PerkinElmer Envision or BMG Pherastar microplate readers.
# [1] = Stability in human microsome preparations; type: in vitro ADME; conditions: incubation at 37 °C, human microsomes; read-out: human MS, T1/2
# Description: (§3) Table 1 Screening Data for Selected Analogues ^a | column: human and rat MS, T1/2 (min) ^g
# [2] = Stability in rat microsome preparations; type: in vitro ADME; conditions: incubation at 37 °C, rat microsomes; read-out: rat MS, T1/2
# Description: as §3
# IP = IP (Homo sapiens, UniProt P43119); assay: HTRF cAMP assay, recombinant human IP receptor stably expressed in CHO-K1 cells; type: cell-based; design: expressed in transfected cells
# Description: as §1, §2
# rat IP = rat IP (Rattus norvegicus, UniProt P43253); assay: HTRF cAMP assay, recombinant rat IP receptor; type: cell-based; design: expressed in transfected cells; conditions: for EC50: HTRF (cAMP) rat IP receptor assay, mean of at least three determinations; for Emax: read-out: rIP % IA
# Description: as §1, §2
# human platelet = assay: Inhibition of ADP-induced human platelet aggregation; type: cell-based; conditions: aggregation induced by 2.5 μM ADP, mean of at least two determinations
# Description: Such aggregated and activated platelets produce vasoactive substances such as thromboxane and serotonin that may cause harmful vasoconstriction and vascular remodeling.[13] […] This secondary assay was carried out as previously described,[14] with aggregation induced by 2.5 μM ADP in the presence or absence of IP receptor agonists.
# Rat PK (iv and oral) = type: in vivo; conditions: for AUC(0-inf) / bioavailability: Sprague-Dawley, plasma; for AUC(0-inf): after oral administration 10 mg/kg (5m 10.5); for bioavailability: po, 10 mg/kg; for Cmax / Tmax: po 10 mg/kg (5m 10.5); for T1/2: terminal half-life after iv 2 mg/kg (5m 2.1); for Clobs: total clearance, iv 2 mg/kg (5m 2.1)
# [3] = HTRF (cAMP) human IP receptor assay; mean of at least three determinations
# Sequence of IP (P43119 whole entry): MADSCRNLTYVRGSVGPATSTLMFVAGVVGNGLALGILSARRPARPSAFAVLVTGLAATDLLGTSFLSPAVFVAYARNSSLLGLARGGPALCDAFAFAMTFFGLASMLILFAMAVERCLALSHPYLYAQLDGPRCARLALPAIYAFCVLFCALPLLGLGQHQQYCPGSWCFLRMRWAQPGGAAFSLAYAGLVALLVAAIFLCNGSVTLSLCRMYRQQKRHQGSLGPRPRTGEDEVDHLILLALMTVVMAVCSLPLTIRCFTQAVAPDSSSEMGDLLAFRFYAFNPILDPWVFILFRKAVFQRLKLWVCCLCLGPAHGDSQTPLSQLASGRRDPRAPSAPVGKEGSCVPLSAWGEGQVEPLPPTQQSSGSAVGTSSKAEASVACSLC
# Sequence of rat IP (P43253 whole entry): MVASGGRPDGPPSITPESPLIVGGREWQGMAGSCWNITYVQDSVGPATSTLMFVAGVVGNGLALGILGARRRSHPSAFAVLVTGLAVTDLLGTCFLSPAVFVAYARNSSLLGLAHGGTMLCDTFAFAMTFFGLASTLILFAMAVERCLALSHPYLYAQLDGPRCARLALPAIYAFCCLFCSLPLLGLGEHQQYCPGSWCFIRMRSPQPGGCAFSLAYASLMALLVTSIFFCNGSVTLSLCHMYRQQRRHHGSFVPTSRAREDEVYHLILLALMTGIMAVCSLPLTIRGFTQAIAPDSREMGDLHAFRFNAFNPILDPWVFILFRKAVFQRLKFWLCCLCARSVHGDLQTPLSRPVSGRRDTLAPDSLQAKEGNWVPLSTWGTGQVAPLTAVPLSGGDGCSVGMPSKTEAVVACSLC
Emax (human DP1 receptor) [%],EC50 (human DP1 receptor) [nM],half-life [1] [h],half-life [2] [h],Emax (IP; CHO-K1; read-out: hIP % IA) [%],EC50 (rat IP) [nM],Emax (rat IP) [%],EC50 (IP; [3]) [nM],IC50 (human platelet) [nM],AUC(0-inf) (Rat PK (iv and oral)) [ng·h/mL],bioavailability (Rat PK (iv and oral)) [%],Cmax (Rat PK (iv and oral)) [ng/mL],Tmax (Rat PK (iv and oral)) [h],T1/2 (Rat PK (iv and oral)) [h],Clobs (Rat PK (iv and oral)) [L h^–1 kg^–1],Compound,"Emax (IP; CHO-K1, read-out: hIP % IA) [%]"
61,3870,,,79,561,88,62,93,,,,,,,"O=C(O)COC[C@H]1CC[C@@H](COC(=O)N(c2ccccc2)c2cccc(F)c2)CC1 [5h, 2-(((1s,4s)-4-(((3-Fluorophenyl)(phenyl)carbamoyloxy)methyl)cyclohexyl)methoxy)acetic Acid]",
65,1030,,,70,1570,60,5.2,43,,,,,,,"COc1ccc(N(C(=O)OC[C@H]2CC[C@H](COCC(=O)O)CC2)c2cccc(F)c2)cc1 [5p, 2-(((1r,4r)-4-(((3-Fluorophenyl)(4-methoxyphenyl)carbamoyloxy)methyl)cyclohexyl)methoxy)acetic Acid]",
,> 10000,> 1,> 1,75,2720,56,23,,,,,,,,"O=C(O)COC[C@H]1CC[C@H](COC(=O)N(c2cccc(F)c2)c2ccc(Cl)c(F)c2)CC1 [5t, 2-(((1r,4r)-4-(((4-Chloro-3-fluorophenyl)(3-fluorophenyl)carbamoyloxy)methyl)cyclohexyl)methoxy)acetic Acid]",
57,808,> 1,> 1,76,1630,54,7.8,30,,,,,,,"O=C(O)COC[C@H]1CC[C@H](COC(=O)N(c2ccc(F)cc2)c2cccc(F)c2)CC1 [5s, 2-(((1r,4r)-4-(((4-Fluorophenyl)(3-fluorophenyl)carbamoyloxy)methyl)cyclohexyl)methoxy)acetic Acid]",
74,240,> 1,> 1,83,165,91,3.3,22,3400,100,950,0.3,0.3,3.4,"COc1ccc(N(C(=O)OC[C@H]2CC[C@H](COCC(=O)O)CC2)c2ccccc2)cc1 [5e, 2-(((1r,4r)-4-(((4-Methoxyphenyl)(phenyl)carbamoyloxy)methyl)cyclohexyl)methoxy)acetic Acid]",
,,,,16,> 10000,,1630,,,,,,,,"COc1ccc(N(C(=O)OC[C@H]2CC[C@@H](COCC(=O)O)CC2)c2ccccc2)cc1 [5f, 2-(((1s,4s)-4-(((4-Methoxyphenyl)(phenyl)carbamoyloxy)methyl)cyclohexyl)methoxy)acetic Acid]",
35,1140,> 1,> 1,70,3190,44,18.5,,,,,,,,"O=C(O)COC[C@H]1CC[C@H](COC(=O)N(c2ccc(Cl)cc2)c2cccc(F)c2)CC1 [5q, 2-(((1r,4r)-4-(((4-Chlorophenyl)(3-fluorophenyl)carbamoyloxy)methyl)cyclohexyl)methoxy)acetic Acid]",

# Second part, the molecule before the results:
Compound,Emax (human DP1 receptor) [%],EC50 (human DP1 receptor) [nM],half-life [1] [h],half-life [2] [h],Emax (IP; CHO-K1; read-out: hIP % IA) [%],EC50 (rat IP) [nM],Emax (rat IP) [%],EC50 (IP; [3]) [nM],IC50 (human platelet) [nM],AUC(0-inf) (Rat PK (iv and oral)) [ng·h/mL],bioavailability (Rat PK (iv and oral)) [%],Cmax (Rat PK (iv and oral)) [ng/mL],Tmax (Rat PK (iv and oral)) [h],T1/2 (Rat PK (iv and oral)) [h],Clobs (Rat PK (iv and oral)) [L h^–1 kg^–1],"Emax (IP; CHO-K1, read-out: hIP % IA) [%]"
"O=C(O)COC[C@H]1CC[C@H](COC(=O)N(c2ccccc2)c2cccc(Cl)c2)CC1 [5i, 2-(((1r,4r)-4-(((3-Chlorophenyl)(phenyl)carbamoyloxy)methyl)cyclohexyl)methoxy)acetic Acid]",30,5070,> 1,> 1,80,272,88,,,,,,,,,
O=C(COC[C@H]1CC[C@H](COC(=O)N(c2ccc(O)cc2)c2ccc(Cl)cc2)CC1)NCCS(=O)(=O)O [M3],,,,,78,,,1050,,,,,,,,
"O=C(O)COC[C@H]1CC[C@H](COC(=O)N(c2ccccc2)c2ccc(F)c(F)c2)CC1 [5o, 2-(((1r,4r)-4-(((3,4-Difluorophenyl)(phenyl)carbamoyloxy)methyl)cyclohexyl)methoxy)acetic Acid]",45,5000,> 1,> 1,88,640,95,10,19,4500,24,1430,0.833,3.2,0.6,
"O=C(O)COC[C@H]1CC[C@H](COC(=O)N(c2ccccc2)c2ccc(Cl)c(F)c2)CC1 [5m, 2-(((1r,4r)-4-(((4-Chloro-3-fluorophenyl)(phenyl)carbamoyloxy)methyl)cyclohexyl)methoxy)acetic Acid]",38,2050,> 1,> 1,85,400,92,3.4,23,2600,88,3000,0.5,5,0.8,
"O=C(O)COC[C@H]1CC[C@@H](COC(=O)N(c2ccccc2)c2ccc(Cl)cc2)CC1 [5d, 2-(((1s,4s)-4-(((4-Chlorophenyl)(phenyl)carbamoyloxy)methyl)cyclohexyl)methoxy)acetic Acid]",60,980,,,,560,88,,,,,,,,,80
"Cc1ccc(N(C(=O)OC[C@H]2CC[C@H](COCC(=O)O)CC2)c2ccccc2)cc1 [5k, 2-(((1r,4r)-4-((Phenyl(p-tolyl)carbamoyloxy)methyl)cyclohexyl)methoxy)acetic Acid]",53,320,,,81,174,99,3.9,39,,,,,,,
O=C(O)COC[C@H]1CC[C@H](COC(=O)N(c2ccc(O)cc2)c2ccc(Cl)cc2)CC1 [M2],,,,,93,,,25,,,,,,,,
"CC(C)N(CCCCOCC(=O)NS(C)(=O)=O)c1cnc(-c2ccccc2)c(-c2ccccc2)n1 [compound 1, selexipag, reference compound]",48,,> 1,> 1,98,,100,,62,,,,,,,
"O=C(O)COC[C@H]1CC[C@H](COC(=O)N(c2ccccc2)c2ccc(F)c(Cl)c2)CC1 [5n, 2-(((1r,4r)-4-(((3-Chloro-4-fluorophenyl)(phenyl)carbamoyloxy)methyl)cyclohexyl)methoxy)acetic Acid]",,> 10000,> 1,> 1,79,1330,102,38,142,,,,,,,
"O=C(O)COC[C@H]1CC[C@@H](COC(=O)N(c2ccccc2)c2ccccc2)CC1 [5b, 2-(((1s,4s)-4-((Diphenylcarbamoyloxy)methyl)cyclohexyl)methoxy)acetic Acid]",68,1710,,,81,472,94,54,54,,,,,,,
"O=C(O)COC[C@H]1CC[C@H](COC(=O)N(c2ccc(F)cc2)c2ccc(F)cc2)CC1 [5r, 2-(((1r,4r)-4-((Bis(4-fluorophenyl)carbamoyloxy)methyl)cyclohexyl)methoxy)acetic Acid]",45,860,,,65,> 10000,,41,,,,,,,,
